The values below come from US20230339937A1, “CONDENSED RING COMPOUNDS THAT INHIBIT H-PGDS” (SATO PHARMACEUTICAL CO., LTD., priority 2020, published 2023).

Where a name gives a salt, the structure may show the parent alone.

In the test the target is T1, Recombinant human H-PGDS (Homo sapiens, UniProt O60760).
T1 construct: made in house; host or cells: E. coli
In words: H-PGDS inhibitory activity (prostaglandin D2 production from prostaglandin H2, measured by LC-MS/MS). In kind it is biochemical. Conditions: recombinant human H-PGDS 1.0 nM expressed in E. coli; prostaglandin H2 25 μM; preincubated 15 minutes on ice, reacted on ice for 1 minute; concentration that inhibits prostaglandin D2 production by 50%. On the procedure:
The H-PGDS inhibitory activity of each Example compound was measured according to the method reported by LIN, Jiang. et al. (NO 2007/041634).
Recombinant human H-PGDS (final concentration: 1.0 nM) expressed in E. coli was mixed in an assay buffer containing 20 mM Tris-HCl (pH 8.0), 2 mM magnesium chloride, 2 mM reduced glutathione, and 0.5 mg/mL γ-globulin, and 150 μL of the mixture was dispensed into a 8-strip PCR tube (BM Equipment Co., Ltd.). Test compounds (Example compounds) (16.5 μL) at various concentrations dissolved in DMSO were added and the mixture was preincubated for 15 minutes on ice.
Prostaglandin H2 (final concentration: 25 μM) (Cayman Chemical) was dispensed into another 8-strip PCR tube, and the solvent was dried and solidified using a vacuum concentrator (Thermo Fisher Scientific). To the dried and solidified prostaglandin H2 was added 50 μL of the assay buffer containing H-PGDS and each test compound after the preincubation, and the mixture was reacted on ice for 1 minute. 45 μL of this mixture was added to 45 μL of a stop solution (50 mM aqueous citric acid solution containing iron chloride at a final concentration of 4 mg/mL) to stop the reaction. Then, the reaction solution was deproteinized, added to a 96 square deep well plate (SHONANMARUHACHI STEC Co., Ltd.), and the prostaglandin D2 concentration in the reaction solution was measured by LC-MS/MS. ACQUITY (registered trademark) TQD (Waters) was used as a measuring instrument.
Prostaglandin Da production activity (f) in the group with each test compound when a value obtained by subtracting the amount of production of prostaglandin D2 in the group without enzyme, which is non-specific production of prostaglandin D2, from the amount of production of prostaglandin Da in the group without test compound (DMSO-addition group) in each 8-strip PCR tube is 100% was calculated.

T1 sequence (O60760 whole entry): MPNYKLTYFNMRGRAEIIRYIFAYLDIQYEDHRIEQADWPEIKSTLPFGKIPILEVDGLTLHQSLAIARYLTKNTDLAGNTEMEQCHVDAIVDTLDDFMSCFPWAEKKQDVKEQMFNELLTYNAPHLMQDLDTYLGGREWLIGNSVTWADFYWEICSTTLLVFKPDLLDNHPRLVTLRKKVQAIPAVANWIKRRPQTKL

As for `O=C(N[C@H]1CC[C@H](OCC2(O)CC2)CC1)c1ccc(-c2nccc3occc23)c(F)c1` [Example 347, 3-fluoro-4-(furo[3,2-c]pyridin-4-yl)-N-(trans-4-[(1-hydroxycyclopropyl)methoxy]cyclohexyl)benzamide], the IC50 was 2 nM.

Turning to `CC(C)(O)CO[C@H]1CC[C@H](NC(=O)c2ccc(-c3nccc4occc34)cc2)CC1` [Example 64, 4-(furo[3,2-c]pyridin-4-yl)-N-[trans-4-(2-hydroxy-2-methylpropoxy)cyclohexyl]benzamide], the IC50 was 3.1 nM.

Regarding `CC(C)(O)[C@H]1CC[C@H](NC(=O)c2ccc(-c3nccc4occc34)c(F)c2)CC1` [Example 125, 3-fluoro-4-(furo[3,2-c]pyridin-4-yl)-N-[trans-4-(2-hydroxypropan-2-yl)cyclohexyl]benzamide], the IC50 amounted to 2.2 nM. Then `CC(C)(O)[C@H]1CC[C@H](NC(=O)c2ccc(-c3nc(F)cc4occc34)cc2)CC1` [Example 316, 4-(6-fluorofuro[3,2-c]pyridin-4-yl)-N-[trans-4-(2-hydroxypropan-2-yl)cyclohexyl]benzamide], with 1.5 nM. Take `O=C(N[C@H]1CC[C@H](CO)CC1)c1ccc(-c2nccc3occc23)cc1` [Example 120, 4-(furo[3,2-c]pyridin-4-yl)-N-[trans-4-(hydroxymethyl)cyclohexyl]benzamide]: the IC50 is 3.3 nM.

In the case of `Cc1cc2occc2c(-c2ccc(C(=O)N[C@H]3CC[C@H](NCC(F)F)CC3)cc2)n1` [Example 331, N-{trans-4-[(2,2-difluoroethyl)amino]cyclohexyl}-4-(6-methylfuro[3,2-c]pyridin-4-yl)benzamide], the IC50 is 1.8 nM.

Regarding `N#Cc1ccc(CNC(=O)c2ccc(-c3nccc4occc34)cc2)cc1` [Example 74, N-(4-cyanobenzyl)-4-(furo[3,2-c]pyridin-4-yl)benzamide], the IC50 is 6.3 nM. In the case of `Cc1ccc(N2CCC(NC(=O)c3ccc(-c4nccc5occc45)cc3)CC2)nc1` [Example 151, 4-(furo[3,2-c]pyridin-4-yl)-N-[1-(5-methylpyridin-2-yl)piperidin-4-yl]benzamide], the IC50 amounted to 1.4 nM.

Consider `NC(=O)c1ccnc(N2CCC(NC(=O)c3ccc(-c4nccc5occc45)cc3)CC2)n1` [Example 175, 2-{4-[4-(furo[3,2-c]pyridin-4-yl)benzamide]piperidin-1-yl}pyrimidine-4-carboxamide], for which the IC50 is 1.3 nM.

As to `O=C(N[C@H]1CC[C@](O)(C2CC2)CC1)c1ccc(-c2nccc3occc23)cc1` [Example 291, N-(cis-4-cyclopropyl-4-hydroxycyclohexyl)-4-(furo[3,2-c]pyridin-4-yl)benzamide], the IC50 worked out at 2.4 nM. For the compound `Cc1cc2c(-c3ccc(C(=O)N[C@H]4CC[C@H](C(C)(C)O)CC4)cc3)nccc2o1` [Example 128, N-[trans-4-(2-hydroxypropan-2-yl)cyclohexyl]-4-(2-methylfuro[3,2-c]pyridin-4-yl)benzamide], the IC50 was 3.5 nM. Regarding `O=C(Nc1ccccc1)c1ccc(-c2nccc3[nH]ccc23)cc1` [Example 16, N-phenyl-4-(1H-pyrrolo[3,2-c]pyridin-4-yl)benzamide], the concentration for half-maximal inhibition (IC50) was 1.1 nM. Then `O=C(N[C@H]1CC[C@H](NCC(F)F)CC1)c1ccc(-c2nccc3occc23)c(F)c1` [Example 326, N-{trans-4-[(2,2-difluoroethyl)amino]cyclohexyl}-3-fluoro-4-(furo[3,2-c]pyridin-4-yl)benzamide], with 1.3 nM; and `CC(C)N(CCNC(=O)c1ccc(-c2nccc3sccc23)cc1)C(C)C` [Example 62, N-[2-(diisopropylamino)ethyl]-4-(thieno[3,2-c]pyridin-4-yl)benzamide dihydrochloride], with 86 nM; and `CS(=O)(=O)c1cccc(NC(=O)c2ccc(-c3nccc4occc34)cc2)c1` [Example 106, 4-(furo[3,2-c]pyridin-4-yl)-N-[3-(methylsulfonyl)phenyl]benzamide], with 3.7 nM. As to `O=C(N[C@H]1CC[C@H](N2CC(F)(F)C2)CC1)c1ccc(-c2nccc3occc23)cc1` [Example 304, N-[trans-4-(3,3-difluoroazetidin-1-yl)cyclohexyl]-4-(furo[3,2-c]pyridin-4-yl)benzamide], the IC50 came to 9.2 nM. The figure for `O=C(NC1CCN(c2cccc(F)n2)CC1)c1ccc(-c2nccc3occc23)cc1` [Example 147, N-[1-(6-fluoropyridin-2-yl)piperidin-4-yl]-4-(furo[3,2-c]pyridin-4-yl)benzamide] is 1 nM.

For `O=C(N[C@@H]1CN(c2ncc(CO)cn2)C[C@H]1O)c1ccc(-c2nccc3occc23)cc1` [Example 207, 4-(furo[3,2-c]pyridin-4-yl)-N-((3R,4R)-4-hydroxy-1-[5-(hydroxymethyl)pyrimidin-2-yl]pyrrolidin-3-yl)benzamide], the IC50 was 6.7 nM. The figure for `Cn1nccc1CNC(=O)c1ccc(-c2nccc3[nH]ccc23)cc1` [Example 37, N-[(1-methyl-1H-pyrazol-5-yl)methyl]-4-(1H-pyrrolo[3,2-c]pyridin-4-yl)benzamide] is 0.86 nM; for `NS(=O)(=O)c1cnc(N2CCC(NC(=O)c3ccc(-c4nccc5occc45)cc3)CC2)nc1` [Example 177, 4-(furo[3,2-c]pyridin-4-yl)-N-[1-(5-sulfamoylpyrimidin-2-yl)piperidin-4-yl]benzamide] it is 1.2 nM. The figure for `O=C(NC12CC(O)(C1)C2)c1ccc(-c2nccc3occc23)cc1` [Example 278, 4-(furo[3,2-c]pyridin-4-yl)-N-(3-hydroxybicyclo[1.1.1]pentan-1-yl)benzamide] is 3.3 nM; for `O=C(Nc1cccc(F)c1)c1ccc(-c2nccc3occc23)cc1` [Example 112, N-(3-fluorophenyl)-4-(furo[3,2-c]pyridin-4-yl)benzamide] it is 3.4 nM. Then `O=C(NCc1cccnc1)c1ccc(-c2nccc3[nH]ccc23)cc1` [Example 10, N-(pyridin-3-ylmethyl)-4-(1H-pyrrolo[3,2-c]pyridin-4-yl)benzamide], with 1.7 nM. Regarding `COc1ccnc(N2CCC(NC(=O)c3ccc(-c4nccc5occc45)cc3)CC2)n1` [Example 162, 4-(furo[3,2-c]pyridin-4-yl)-N-[1-(4-methoxypyrimidin-2-yl)piperidin-4-yl]benzamide], the IC50 stood at 1.9 nM. The figure for `O=C(NC1CCN(c2nnnn2C2CC2)CC1)c1ccc(-c2nccc3occc23)cc1` [Example 243, N-[1-(1-cyclopropyl-1H-tetrazol-5-yl)piperidin-4-yl]-4-(furo[3,2-c]pyridin-4-yl)benzamide] is 2 nM; for `O=C(NCC1CCCO1)c1ccc(-c2nccc3[nH]ccc23)cc1` (stereo not shown) [Example 20, 4-(1H-pyrrolo[3,2-c]pyridin-4-yl)-N-[(tetrahydrofuran-2-yl)methyl] benzamide] it is 0.83 nM; for `O=C(N[C@H]1CCN(c2cccc(=O)[nH]2)C1)c1ccc(-c2nccc3occc23)cc1` [Example 233, (S)-4-(furo[3,2-c]pyridin-4-yl)-N-[1-(6-oxo-1,6-dihydropyridin-2-yl)pyrrolidin-3-yl]benzamide] it is 7.5 nM. With `N#Cc1ccnc(N2CCC(NC(=O)c3ccc(-c4nccc5occc45)cc3)CC2)n1` [Example 164, N-[1-(4-cyanopyrimidin-2-yl)piperidin-4-yl]-4-(furo[3,2-c]pyridin-4-yl)benzamide], the IC50 is 0.78 nM. Then `O=C(NC1CC2(CNC2)C1)c1ccc(-c2nccc3occc23)cc1` [Example 209, 4-(furo[3,2-c]pyridin-4-yl)-N-(2-azaspiro[3.3]heptan-6-yl)benzamide], with 39 nM; and `N#Cc1cc(N2CCC(NC(=O)c3ccc(-c4nccc5occc45)cc3)CC2)ccn1` [Example 166, N-[1-(2-cyanopyridin-4-yl)piperidin-4-yl]-4-(furo[3,2-c]pyridin-4-yl)benzamide], with 1 nM.

Consider `CCC(O)CNC(=O)c1ccc(-c2nccc3occc23)cc1` (stereo not shown) [Example 91, 4-(furo[3,2-c]pyridin-4-yl)-N-(2-hydroxybutyl) benzamide], for which the IC50 is 32 nM.

Turning to `O=C(N[C@H]1CC[C@H](C2(O)CC2)CC1)c1ccc(-c2nccc3occc23)c(F)c1` [Example 327, 3-fluoro-4-(furo[3,2-c]pyridin-4-yl)-N-[trans-4-(1-hydroxycyclopropyl)cyclohexyl]benzamide], the IC50 was determined as 1.1 nM. As for `O=C(Nc1ccccn1)c1ccc(-c2nccc3occc23)cc1` [Example 107, 4-(furo[3,2-c]pyridin-4-yl)-N-(pyridin-2-yl)benzamide], the IC50 turned out to be 19 nM.

Consider `CCOC(=O)c1cnc(N2CCC(NC(=O)c3ccc(-c4nccc5occc45)cc3)CC2)nc1` [Example 158, Ethyl 2-{4-[4-(furo[3,2-c]pyridin-4-yl)benzamide]piperidin-1-yl}pyrimidine-5-carboxylate], for which the IC50 came to 0.69 nM.
